From PubChem BioAssay (NCI)
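Here, GI50 denotes the concentration required for 50% inhibition of growth. TGI: total growth inhibition.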

Key:
Assay in all cases: DTP human tumour cell line panel, 384-well format; in the data active = GI50 below about 0.43 µM; inactive = the rest
786-0 renal = test system: 786-0 renal
MOLT-4 leukemia = test system: MOLT-4 leukemia
HOP-92 NSCLC = test system: HOP-92 NSCLC
MDA-MB-435 melanoma = test system: MDA-MB-435 melanoma
NCI/ADR-RES ovarian = test system: NCI/ADR-RES ovarian
HCT-116 colon = test system: HCT-116 colon
TK-10 renal = test system: TK-10 renal
UO-31 renal = test system: UO-31 renal
HOP-62 NSCLC = test system: HOP-62 NSCLC
SK-MEL-2 melanoma = test system: SK-MEL-2 melanoma
OVCAR-4 ovarian = test system: OVCAR-4 ovarian
SK-MEL-5 melanoma = test system: SK-MEL-5 melanoma
UACC-62 melanoma = test system: UACC-62 melanoma
NCI-H522 lung = test system: NCI-H522 lung
COLO 205 colon = test system: COLO 205 colon
M14 melanoma = test system: M14 melanoma
PC-3 prostate = test system: PC-3 prostate
K-562 leukemia = test system: K-562 leukemia
SN12C renal = test system: SN12C renal
SR leukemia = test system: SR leukemia
ACHN renal = test system: ACHN renal
HL-60(TB) leukemia = test system: HL-60(TB) leukemia
MCF7 breast = test system: MCF7 breast
HCT-15 colon = test system: HCT-15 colon
OVCAR-8 ovarian = test system: OVCAR-8 ovarian
MDA-MB-468 breast = test system: MDA-MB-468 breast
RXF 393 renal = test system: RXF 393 renal
A549 NSCLC = test system: A549 NSCLC
NCI-H226 lung = test system: NCI-H226 lung
RPMI-8226 leukemia = test system: RPMI-8226 leukemia
A498 renal = test system: A498 renal
CCRF-CEM leukemia = test system: CCRF-CEM leukemia
DU-145 prostate = test system: DU-145 prostate
NCI-H322M lung = test system: NCI-H322M lung
HCC-2998 colon = test system: HCC-2998 colon
CAKI-1 renal = test system: CAKI-1 renal
OVCAR-3 ovarian = test system: OVCAR-3 ovarian
EKVX NSCLC = test system: EKVX NSCLC
MDA-MB-231 breast = test system: MDA-MB-231 breast
SW-620 colon = test system: SW-620 colon
HS 578T breast = test system: HS 578T breast
LOX IMVI melanoma = test system: LOX IMVI melanoma
SF-539 CNS = test system: SF-539 CNS
HT29 colon = test system: HT29 colon
MALME-3M melanoma = test system: MALME-3M melanoma
SK-OV-3 ovarian = test system: SK-OV-3 ovarian
SF-268 CNS = test system: SF-268 CNS
U251 glioblastoma = test system: U251 glioblastoma
T-47D breast = test system: T-47D breast
SNB-75 CNS = test system: SNB-75 CNS
UACC-257 melanoma = test system: UACC-257 melanoma
BT-549 breast = test system: BT-549 breast
KM12 colon = test system: KM12 colon
NCI-H23 lung = test system: NCI-H23 lung
SK-MEL-28 melanoma = test system: SK-MEL-28 melanoma
IGROV1 ovarian = test system: IGROV1 ovarian
SNB-19 CNS = test system: SNB-19 CNS
SF-295 CNS = test system: SF-295 CNS
NCI-H460 NSCLC = test system: NCI-H460 NSCLC

Cc1sc(C(=O)c2cncnc2N[C@@H]2C[C@H](COS(N)(=O)=O)[C@@H](O)C2)cc1[C@@H]1NCCc2ccc(Cl)cc21
0.239 µM: TGI (SK-MEL-5 melanoma)
0.0233 µM: TGI (HL-60(TB) leukemia)
19.2 µM: TGI (PC-3 prostate)
27.7 µM: TGI (TK-10 renal)
0.081 µM: TGI (OVCAR-4 ovarian)
0.0183 µM: TGI (MDA-MB-435 melanoma)
inactive: GI50 ([…]-0 renal) 0.453 µM | GI50 (NCI/ADR-RES ovarian) 32.7 µM | GI50 (TK-10 renal) 14.5 µM | GI50 (UO-31 renal) 10.6 µM | GI50 (ACHN renal) 12.5 µM | GI50 (HCT-15 colon) 2.5 µM | GI50 (A498 renal) 0.561 µM
15.3 µM: TGI (MCF7 breast)
20.5 µM: TGI (786-0 renal)
0.0186 µM: TGI (MOLT-4 leukemia)
0.0756 µM: TGI (COLO 205 colon)
active: GI50 (MOLT-4 leukemia) < 0.01 µM | GI50 (HOP-92 NSCLC) 0.0188 µM | GI50 (MDA-MB-435 melanoma) < 0.01 µM | GI50 (HCT-116 colon) 0.0282 µM | GI50 (HOP-62 NSCLC) 0.321 µM | GI50 (SK-MEL-2 melanoma) < 0.01 µM | GI50 (OVCAR-4 ovarian) 0.029 µM | GI50 (SK-MEL-5 melanoma) 0.0565 µM | GI50 (UACC-62 melanoma) 0.0198 µM | GI50 (NCI-H522 lung) < 0.01 µM | GI50 (COLO 205 colon) 0.0132 µM | GI50 (M14 melanoma) 0.0322 µM | GI50 (PC-3 prostate) 0.0352 µM | GI50 (K-562 leukemia) 0.0548 µM | GI50 (SN12C renal) 0.133 µM | GI50 (SR leukemia) < 0.01 µM | GI50 (HL-60(TB) leukemia) 0.0111 µM | GI50 (MCF7 breast) < 0.01 µM | GI50 (OVCAR-8 ovarian) 0.186 µM | GI50 (MDA-MB-468 breast) < 0.01 µM | GI50 (RXF 393 renal) 0.0104 µM | GI50 (A549 NSCLC) 0.0744 µM | GI50 (NCI-H226 lung) 0.16 µM | GI50 (RPMI-8226 leukemia) < 0.01 µM | GI50 (CCRF-CEM leukemia) < 0.01 µM
17.2 µM: TGI (A549 NSCLC)
14.2 µM: TGI (HCT-15 colon)
18.7 µM: TGI (A498 renal)
0.0123 µM: TGI (SK-MEL-2 melanoma)
0.0151 µM: TGI (NCI-H522 lung)
0.0172 µM: TGI (MDA-MB-468 breast)
21.4 µM: TGI (SN12C renal)
10.1 µM: TGI (HOP-92 NSCLC)
0.0578 µM: TGI (RXF 393 renal)
16.3 µM: TGI (NCI-H226 lung)
22.6 µM: TGI (UO-31 renal)
25.3 µM: TGI (ACHN renal)
19.3 µM: TGI (HOP-62 NSCLC)
17.5 µM: TGI (OVCAR-8 ovarian)
13.1 µM: TGI (K-562 leukemia)
17.7 µM: TGI (UACC-62 melanoma)
0.214 µM: TGI (M14 melanoma)
0.0148 µM: TGI (CCRF-CEM leukemia)
17.4 µM: TGI (HCT-116 colon)
> 100 µM: TGI (NCI/ADR-RES ovarian)

C[C@@H](Nc1cc(F)cc(F)c1)c1cc(C(=O)N(C)C)cc2c(=O)cc(N3CCOCC3)oc12
9.14 µM: TGI (HL-60(TB) leukemia)
16 µM: TGI (SF-295 CNS)
8.24 µM: TGI (RXF 393 renal)
12.7 µM: TGI (MDA-MB-468 breast)
16.6 µM: TGI (SR leukemia)
1.31 µM: TGI (A498 renal)
9.05 µM: TGI (T-47D breast)
inactive: GI50 ([…]-0 renal) 1.24 µM | GI50 (DU-145 prostate) 17.4 µM | GI50 (MOLT-4 leukemia) 1.11 µM | GI50 (HOP-92 NSCLC) 0.627 µM | GI50 (MDA-MB-435 melanoma) 87 µM | GI50 (NCI/ADR-RES ovarian) > 100 µM | GI50 (HCT-116 colon) 10.5 µM | GI50 (TK-10 renal) 3.57 µM | GI50 (NCI-H322M lung) 8.36 µM | GI50 (UO-31 renal) 6.38 µM | GI50 (HCC-2998 colon) 5.66 µM | GI50 (HOP-62 NSCLC) 28.8 µM | GI50 (OVCAR-4 ovarian) > 100 µM | GI50 (OVCAR-3 ovarian) 0.465 µM | GI50 (SK-MEL-5 melanoma) 11.3 µM | GI50 (UACC-62 melanoma) 0.981 µM | GI50 (EKVX NSCLC) 2.4 µM | GI50 (NCI-H522 lung) 23.7 µM | GI50 (COLO 205 colon) 13.4 µM | GI50 (M14 melanoma) 20.4 µM | GI50 (MDA-MB-231 breast) 49.1 µM | GI50 (SW-620 colon) 61.4 µM | GI50 (K-562 leukemia) 55.1 µM | GI50 (HS 578T breast) 0.902 µM | GI50 (ACHN renal) 6.68 µM | GI50 (LOX IMVI melanoma) 17 µM | GI50 (HL-60(TB) leukemia) 0.599 µM | GI50 (MCF7 breast) 0.666 µM | GI50 (SF-539 CNS) 12 µM | GI50 (HCT-15 colon) 25.5 µM | GI50 (HT29 colon) 6.45 µM | GI50 (OVCAR-8 ovarian) 10.3 µM | GI50 (MALME-3M melanoma) 1.13 µM | GI50 (SK-OV-3 ovarian) 3.48 µM | GI50 (MDA-MB-468 breast) 1.59 µM | GI50 (SF-268 CNS) 13.1 µM | GI50 (U251 glioblastoma) 39.2 µM | GI50 (T-47D breast) 0.591 µM | GI50 (SNB-75 CNS) 0.762 µM | GI50 (A549 NSCLC) 7.85 µM | GI50 (NCI-H226 lung) 67.6 µM | GI50 (UACC-257 melanoma) 17.2 µM | GI50 (KM12 colon) 23.5 µM | GI50 (NCI-H23 lung) 31.8 µM | GI50 (SK-MEL-28 melanoma) 1.39 µM | GI50 (RPMI-8226 leukemia) 16.6 µM | GI50 (CCRF-CEM leukemia) 13.4 µM | GI50 (SNB-19 CNS) 68.6 µM | GI50 (SF-295 CNS) 0.611 µM | GI50 (NCI-H460 NSCLC) 4.5 µM
3.29 µM: TGI (IGROV1 ovarian)
18 µM: TGI (OVCAR-3 ovarian)
63.1 µM: TGI (MALME-3M melanoma)
57.9 µM: TGI (CCRF-CEM leukemia)
> 100 µM: TGI (786-0 renal) | TGI (DU-145 prostate) | TGI (HOP-92 NSCLC) | TGI (MDA-MB-435 melanoma) | TGI (NCI/ADR-RES ovarian) | TGI (HCT-116 colon) | TGI (TK-10 renal) | TGI (UO-31 renal) | TGI (HOP-62 NSCLC) | TGI (CAKI-1 renal) | TGI (OVCAR-4 ovarian) | TGI (SK-MEL-5 melanoma) | TGI (EKVX NSCLC) | TGI (NCI-H522 lung) | TGI (COLO 205 colon) | TGI (M14 melanoma) | TGI (MDA-MB-231 breast) | TGI (PC-3 prostate) | TGI (SW-620 colon) | TGI (K-562 leukemia) | TGI (SN12C renal) | TGI (ACHN renal) | TGI (LOX IMVI melanoma) | TGI (MCF7 breast) | TGI (SF-539 CNS) | TGI (HCT-15 colon) | TGI (HT29 colon) | TGI (OVCAR-8 ovarian) | TGI (SK-OV-3 ovarian) | TGI (SF-268 CNS) | TGI (U251 glioblastoma) | TGI (SNB-75 CNS) | TGI (A549 NSCLC) | TGI (NCI-H226 lung) | TGI (UACC-257 melanoma) | TGI (BT-549 breast) | TGI (KM12 colon) | TGI (NCI-H23 lung) | TGI (SK-MEL-28 melanoma) | TGI (SNB-19 CNS) | TGI (NCI-H460 NSCLC)
active: GI50 (CAKI-1 renal) 0.25 µM | GI50 (PC-3 prostate) 0.261 µM | GI50 (SN12C renal) 0.215 µM | GI50 (SR leukemia) 0.385 µM | GI50 (RXF 393 renal) 0.182 µM | GI50 (BT-549 breast) 0.341 µM | GI50 (IGROV1 ovarian) 0.392 µM | GI50 (A498 renal) 0.0447 µM
10.8 µM: TGI (MOLT-4 leukemia)
78 µM: TGI (NCI-H322M lung)
51.1 µM: TGI (RPMI-8226 leukemia)
55.6 µM: TGI (HCC-2998 colon)
32.8 µM: TGI (HS 578T breast)
24.7 µM: TGI (UACC-62 melanoma)
